In US11590116B2 (THERAVANCE BIOPHARMA R&D IP, LLC, priority 2019, dated 2023):

Legend:
[1] = system: TGF-β-stimulated SMAD3 phosphorylation in BEAS-2B cells; assay: Cellular ALK5 potency assay, inhibition of TGF-β stimulated pSMAD3 formation in BEAS-2B cells; type: cell-based; conditions: Homo sapiens; inhibition of TGF-β stimulated pSMAD3 formation, BEAS-2B cells; read-out: BEAS2B pIC50 (converted)
Summary of the method: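 SMAD3 phosphorylation was measured by AlphaLISA after 30 min TGF-β stimulation (10 ng/mL final) of BEAS-2B cells preincubated 1 h with compound at 37 °C. Results given as pIC50.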

[2] = biological target: T1, recombinant human ALK5 (TGF-βR1) protein (Homo sapiens, UniProt P36897); assay: Biochemical ALK5 (TGF-βR1) assay to measure pKi (LANCE Ultra ULight kinase assay); conditions: apparent pKi from pIC50 by Cheng-Prusoff, read-out: ALK5 pKi (converted)
T1 construct: purchased Life Technologies PR9075A
T1 sequence (P36897 34-503): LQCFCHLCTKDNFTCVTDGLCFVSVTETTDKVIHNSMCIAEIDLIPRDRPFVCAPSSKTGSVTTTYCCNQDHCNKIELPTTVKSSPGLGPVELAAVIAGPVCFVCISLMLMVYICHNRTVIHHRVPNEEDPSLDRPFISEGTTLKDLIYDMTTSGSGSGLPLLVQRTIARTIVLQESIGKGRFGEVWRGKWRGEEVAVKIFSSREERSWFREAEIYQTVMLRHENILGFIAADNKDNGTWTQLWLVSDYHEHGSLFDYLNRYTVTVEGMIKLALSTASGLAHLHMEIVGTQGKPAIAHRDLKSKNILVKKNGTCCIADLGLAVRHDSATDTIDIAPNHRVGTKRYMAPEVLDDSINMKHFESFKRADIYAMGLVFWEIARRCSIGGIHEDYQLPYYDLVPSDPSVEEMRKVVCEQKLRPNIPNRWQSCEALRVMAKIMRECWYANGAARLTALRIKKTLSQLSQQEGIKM
Summary of the method: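 Compounds (10 μM to 25 pM) preincubated 60 minutes at room temperature with enzyme, then reaction run 60 minutes at 37° C with ATP added as 125 μM (5× final). Stopped with EDTA plus Eu-anti-phospho-Topoisomerase 2-alpha (Thr1342) antibody, TR-FRET read at 665 nm; pIC50 converted to pKi via Cheng-Prusoff.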

| Ki [2] [nM] | SMILES | IC50 [1] [nM] |
| --- | --- | --- |
| < 0.0316 | Cc1cccc(-c2n[nH]cc2-c2ccc3ncc(-c4cn(Cc5cnc6c(c5)CNCC6)nn4)cc3n2)n1 [Compound 325, 2-[3-(6-methyl-2-pyridyl)-1H-pyrazol-4-yl]-7-[1-(5,6,7,8-tetrahydro-1,6-naphthyridin-3-ylmethyl)triazol-4-yl]-1,5-naphthyridine] | 200 to 1260 |
| 0.398 to 3.16 | Cc1cccc(-c2[nH]cnc2-c2ccc3ncc(-c4nccc(C(=O)OC5CNC5)n4)cc3c2)n1 [Compound 1075, azetidin-3-yl 2-[6-[5-(6-methyl-2-pyridyl)-1H-imidazol-4-yl]-3-quinolyl]pyrimidine-4-carboxylate] | 200 to 1260 |
| 3.98 to 31.6 | Cc1cccc(-c2n[nH]cc2-c2ccc3ncc(CNC(C(=O)OC4CCCC4)c4ccccc4)cc3n2)n1 (stereo not drawn) [Compound 684, cyclopentyl 2-[[6-[3-(6-methyl-2-pyridyl)-1H-pyrazol-4-yl]-1,5-naphthyridin-3-yl]methylamino]-2-phenyl-acetate] | 200 to 1260 |
| < 0.0316 | Cc1cccc(-c2[nH]cnc2-c2ccc3ncc(C4=CCC(N)CC4)cc3n2)n1 (stereo not drawn) [Compound 149, 4-[6-[5-(6-methyl-2-pyridyl)-1H-imidazol-4-yl]-1,5-naphthyridin-3-yl]cyclohex-3-en-1-amine] | 25.1 to 158 |
| 0.0398 to 0.316 | Cc1cccc(-c2n[nH]cc2-c2ccc3ncc(-c4cncc(N)n4)cc3n2)n1 [Compound 235, 6-[6-[3-(6-methyl-2-pyridyl)-1H-pyrazol-4-yl]-1,5-naphthyridin-3-yl]pyrazin-2-amine] | 25.1 to 158 |
| < 0.0316 | Cc1cccc(-c2n[nH]cc2-c2ccc3ncc(N4CCC(N(C)C)C4)cc3n2)n1 (racemic) [Compound 505, rac-(3S)-N,N-dimethyl-1-[6-[3-(6-methyl-2-pyridyl)-1H-pyrazol-4-yl]-1,5-naphthyridin-3-yl]pyrrolidin-3-amine] | 25.1 to 158 |
| 0.0398 to 0.316 | Cc1cccc(-c2[nH]ncc2-c2ccc3ncc(C(=O)OC4CCC(N)CC4)cc3c2)n1 (stereo not drawn) [Compound 1216, (4-aminocyclohexyl) 6-[5-(6-methyl-2-pyridyl)-1H-pyrazol-4-yl]quinoline-3-carboxylate] | < 20 |
| 0.398 to 3.16 | Cc1cccc(-c2[nH]nnc2-c2ccc3ncc(N4CCNCC4)cc3n2)n1 [Compound 479, 2-[5-(6-methyl-2-pyridyl)-1H-triazol-4-yl]-7-piperazin-1-yl-1,5-naphthyridine] | 200 to 1260 |
| 0.398 to 3.16 | Cc1cccc(-c2[nH]cnc2-c2ccc3nccc(C(=O)OC[C@H]4CC[C@H](N)CC4)c3c2)n1 [Compound 1081, (4-aminocyclohexyl)methyl 6-[5-(6-methyl-2-pyridyl)-1H-imidazol-4-yl]quinoline-4-carboxylate] | 200 to 1260 |
| < 0.0316 | Cc1cccc(-c2n[nH]cc2-c2ccc3ncc(-c4cnn(CCN)c4)cc3c2)n1 [Compound 435, 2-[4-[6-[3-(6-methyl-2-pyridyl)-1H-pyrazol-4-yl]-3-quinolyl]pyrazol-1-yl]ethanamine] | 25.1 to 158 |
| 0.0398 to 0.316 | Cc1cccc(-c2[nH]cnc2-c2ccc3ncc(-c4cncc(C(=O)O[C@@H]5CCN(C)C5)c4)cc3c2)n1 [Compound 396, [(3R)-1-methylpyrrolidin-3-yl] 5-[6-[5-(6-methyl-2-pyridyl)-1H-imidazol-4-yl]-3-quinolyl]pyridine-3-carboxylate] | 25.1 to 158 |
| 0.0398 to 0.316 | Cc1cccc(-c2[nH]cnc2-c2ccc3ncc(-c4csc(C(=O)OCCN5C[C@@H](C)N[C@@H](C)C5)c4)cc3c2)n1 [Compound 1222, 2-[(3S,5R)-3,5-dimethylpiperazin-1-yl]ethyl 4-[6-[5-(6-methyl-2-pyridyl)-1H-imidazol-4-yl]-3-quinolyl]thiophene-2-carboxylate] | 25.1 to 158 |
| 0.0398 to 0.316 | Cc1cccc(-c2[nH]cnc2-c2ccc3ncc(NCCN4CC5CNC5C4)cc3c2)n1 (stereo not drawn) [Compound 129, N-[2-(3,6-diazabicyclo[3.2.0]heptan-3-yl)ethyl]-6-[5-(6-methyl-2-pyridyl)-1H-imidazol-4-yl]quinolin-3-amine] | 200 to 1260 |
| 0.0398 to 0.316 | Cc1cccc(-c2[nH]cnc2-c2ccc3ncc(-c4csc(C(=O)O[C@H]5CCNC5)n4)cc3c2)n1 [Compound 1024, [(3S)-pyrrolidin-3-yl] 4-[6-[5-(6-methyl-2-pyridyl)-1H-imidazol-4-yl]-3-quinolyl]thiazole-2-carboxylate] | 25.1 to 158 |
| 0.0398 to 0.316 | Cc1cccc(-c2[nH]cnc2-c2ccc3ncc(-c4nc(C(=O)O[C@H]5CCN(C)C5)cs4)cc3c2)n1 [Compound 747, [(3S)-1-methylpyrrolidin-3-yl] 2-[6-[5-(6-methyl-2-pyridyl)-1H-imidazol-4-yl]-3-quinolyl]thiazole-4-carboxylate] | < 20 |
| < 0.0316 | Cc1cccc(-c2[nH]cnc2-c2ccc3ncc(-c4cn[nH]c4)cc3c2)n1 [Compound 430, 6-[5-(6-methyl-2-pyridyl)-1H-imidazol-4-yl]-3-(1H-pyrazol-4-yl)quinoline] | < 20 |
| < 0.0316 | Cc1cccc(-c2n[nH]cc2-c2ccc3ncc(-c4cnn(CCN)c4)cc3n2)n1 [Compound 305, 2-[4-[6-[3-(6-methyl-2-pyridyl)-1H-pyrazol-4-yl]-1,5-naphthyridin-3-yl]pyrazol-1-yl]ethanamine] | 25.1 to 158 |
| 0.0398 to 0.316 | Cc1cccc(-c2[nH]ncc2-c2ccc3ncc(C(=O)O[C@@H]4CCCNC4)cc3c2)n1 [Compound 1203, [(3R)-3-piperidyl] 6-[5-(6-methyl-2-pyridyl)-1H-pyrazol-4-yl]quinoline-3-carboxylate] | 25.1 to 158 |
| 0.0398 to 0.316 | Cc1cccc(-c2nn3cc(Cl)ccc3c2-c2ccc3ncc(-c4cn[nH]c4)cc3n2)n1 [Compound 330, 2-[6-chloro-2-(6-methyl-2-pyridyl)pyrazolo[1,5-a]pyridin-3-yl]-7-(1H-pyrazol-4-yl)-1,5-naphthyridine] | 25.1 to 158 |
| 0.0398 to 0.316 | Cc1cccc(-c2n[nH]cc2-c2ccc3ncc(N4CCCN(C5CCCC5)CC4)cc3n2)n1 [Compound 400, 7-(4-cyclopentyl-1,4-diazepan-1-yl)-2-[3-(6-methyl-2-pyridyl)-1H-pyrazol-4-yl]-1,5-naphthyridine] | 200 to 1260 |
| 0.0398 to 0.316 | Cc1cccc(-c2[nH]cnc2-c2ccc3ncc(NCCNC4CNC4)cc3c2)n1 [Compound 189, N′-(azetidin-3-yl)-N-[6-[5-(6-methyl-2-pyridyl)-1H-imidazol-4-yl]-3-quinolyl]ethane-1,2-diamine] | 200 to 1260 |
| 0.0398 to 0.316 | Cc1cccc(-c2[nH]cnc2-c2ccc3ncc(NCCC4CCNCC4)cc3c2)n1 [Compound 496, 6-[5-(6-methyl-2-pyridyl)-1H-imidazol-4-yl]-N-[2-(4-piperidyl)ethyl]quinolin-3-amine] | 25.1 to 158 |
| 0.0398 to 0.316 | CCOC(=O)C1CC=C(c2cnc3ccc(-c4nc[nH]c4-c4cccc(C)n4)cc3c2)CC1 (stereo not drawn) [Compound 167, ethyl 4-[6-[5-(6-methyl-2-pyridyl)-1H-imidazol-4-yl]-3-quinolyl]cyclohex-3-ene-1-carboxylate] | 25.1 to 158 |
| 0.0398 to 0.316 | CNCCn1cc(-c2cnc3ccc(-c4c(-c5cccc(C)n5)nn5c4CNCC5)cc3c2)cn1 [Compound 327, N-methyl-2-[4-[6-[2-(6-methyl-2-pyridyl)-4,5,6,7-tetrahydropyrazolo[1,5-a]pyrazin-3-yl]-3-quinolyl]pyrazol-1-yl]ethanamine] | 200 to 1260 |
